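Test compounds were applied to cells in 96-well plates for 48 hours at 5 doses. GI50 marks 50% less growth.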 Calls of active or inactive are those of the source. Cut-off read from the data, not from the text of the source: active = GI50 up to about 1.1 µM and inactive = higher.
How the values were obtained:
Experiment in all cases: DTP human tumour cell line panel, 48 h
[1] = tested on: SK-MEL-2
[2] = tested on: IGROV-1
[3] = tested on: HOP-92
[4] = tested on: SK-MEL-28
[5] = tested on: 786-0
[6] = tested on: UACC-257
[7] = tested on: LOX IMVI
[8] = tested on: SF-268
[9] = tested on: SK-MEL-5
[10] = tested on: SF-295
[11] = tested on: OVCAR-8
[12] = tested on: OVCAR-5
[13] = tested on: ACHN
[14] = tested on: TK-10
[15] = tested on: SNB-19
[16] = tested on: SR

SMILES	GI50 [1]	GI50 [2]	GI50 [3]	GI50 [4]	GI50 [5]	GI50 [6]	GI50 [7]	GI50 [8]	GI50 [9]	GI50 [10]	GI50 [11]	GI50 [12]	GI50 [13]	GI50 [14]	GI50 [15]	GI50 [16]
C/C(CC(=O)Nc1ccc(Cl)cc1)=N\NC(N)=S	> 100 µM (inactive)	> 100 µM (inactive)	> 100 µM (inactive)	> 100 µM (inactive)	> 100 µM (inactive)	21.9 µM (inactive)	1.81 µM (inactive)	54 µM (inactive)	26.1 µM (inactive)	29 µM (inactive)	> 100 µM (inactive)	> 100 µM (inactive)	9.14 µM (inactive)	> 100 µM (inactive)	–	–
CC(=O)Oc1ccc2c(=O)c(C(C)=O)coc2c1	> 100 µM (inactive)	> 100 µM (inactive)	79.6 µM (inactive)	> 100 µM (inactive)	> 100 µM (inactive)	> 100 µM (inactive)	81.8 µM (inactive)	> 100 µM (inactive)	> 100 µM (inactive)	> 100 µM (inactive)	> 100 µM (inactive)	> 100 µM (inactive)	> 100 µM (inactive)	> 100 µM (inactive)	> 100 µM (inactive)	> 100 µM (inactive)
CCC(O)C1Cc2c(C)cc3c(c2O1)C(=O)c1ccccc1C3=O (stereo not given)	44.4 µM (inactive)	31.5 µM (inactive)	29.4 µM (inactive)	49.2 µM (inactive)	25.8 µM (inactive)	69 µM (inactive)	27.7 µM (inactive)	25.1 µM (inactive)	44.7 µM (inactive)	29.6 µM (inactive)	32.4 µM (inactive)	72.3 µM (inactive)	27.8 µM (inactive)	85.3 µM (inactive)	36.3 µM (inactive)	33.5 µM (inactive)
Nc1ccc(C(=O)CC2(O)C(=O)Nc3c(Cl)cc(Cl)cc32)cc1 (stereo not given)	> 100 µM (inactive)	–	> 100 µM (inactive)	> 100 µM (inactive)	> 100 µM (inactive)	75.5 µM (inactive)	34.5 µM (inactive)	> 100 µM (inactive)	–	> 100 µM (inactive)	> 100 µM (inactive)	> 100 µM (inactive)	94.8 µM (inactive)	> 100 µM (inactive)	> 100 µM (inactive)	–
O=c1[nH]n2c(=O)cc[nH]c2c1-c1nnns1	> 100 µM (inactive)	> 100 µM (inactive)	> 100 µM (inactive)	> 100 µM (inactive)	> 100 µM (inactive)	–	> 100 µM (inactive)	> 100 µM (inactive)	> 100 µM (inactive)	> 100 µM (inactive)	–	> 100 µM (inactive)	> 100 µM (inactive)	> 100 µM (inactive)	> 100 µM (inactive)	> 100 µM (inactive)
COC(=O)NC(=O)c1cn(C2CCCCC2)c(=O)[nH]c1=O	> 100 µM (inactive)	> 100 µM (inactive)	> 100 µM (inactive)	> 100 µM (inactive)	> 100 µM (inactive)	> 100 µM (inactive)	> 100 µM (inactive)	> 100 µM (inactive)	> 100 µM (inactive)	> 100 µM (inactive)	> 100 µM (inactive)	> 100 µM (inactive)	> 100 µM (inactive)	> 100 µM (inactive)	> 100 µM (inactive)	> 100 µM (inactive)
O=c1c2c(nc3n1CCC3)sc1c(O)c(Br)ccc12	20.7 µM (inactive)	24.1 µM (inactive)	> 100 µM (inactive)	16.4 µM (inactive)	17.5 µM (inactive)	16.6 µM (inactive)	13 µM (inactive)	60.4 µM (inactive)	14.5 µM (inactive)	17.3 µM (inactive)	10.7 µM (inactive)	20.7 µM (inactive)	14.6 µM (inactive)	19.1 µM (inactive)	54.7 µM (inactive)	12.1 µM (inactive)
CC(=O)O[C@]1(C)CCC2C(C)C(=O)OC2C2C(C)[C@@H](O)CC21 (stereo not given in full)	20.3 µM (inactive)	40.7 µM (inactive)	26.4 µM (inactive)	34 µM (inactive)	31.4 µM (inactive)	> 100 µM (inactive)	17.9 µM (inactive)	33.3 µM (inactive)	32.1 µM (inactive)	72.3 µM (inactive)	87.9 µM (inactive)	29.8 µM (inactive)	29.3 µM (inactive)	42.6 µM (inactive)	28.3 µM (inactive)	3.56 µM (inactive)
Cc1nn(C)c(=S)n(C)c1=O	0.733 µM (active)	1 µM (active)	0.291 µM (active)	0.571 µM (active)	3.27 µM (inactive)	1.05 µM (active)	1.79 µM (inactive)	0.56 µM (active)	–	0.571 µM (active)	0.571 µM (active)	2.26 µM (inactive)	0.387 µM (active)	4.69 µM (inactive)	0.802 µM (active)	–

Reference: ChEMBL document CHEMBL1201862, “PubChem BioAssay data set” (2004)
